Data on 11 molecules can be found in ChEMBL document CHEMBL1140426, “First structure-activity relationship study on dopamine D3 receptor agents with N-[4-(4-arylpiperazin-1-yl)butyl]arylcarboxamide structure” (J Med Chem, 2005).

A word on the Ki: it is the equilibrium dissociation constant of an inhibitor or competing ligand from its target. A lower Ki goes with higher affinity. As a reminder, the EC50 is the midpoint of the concentration-response curve.

Assay [1] has as its target T1, D(3) dopamine receptor (Homo sapiens, UniProt P35462). As to the kind of experiment: biochemical.
Description: Displacement of [3H]spiroperidol from cloned human dopamine receptor D3 in CHO cell membrane
The target in assay [2] is T1, D(3) dopamine receptor.
Description: Intrinsic activity against dopamine receptor D3 by Eu-GTP binding assay

T1 sequence (P35462 whole entry): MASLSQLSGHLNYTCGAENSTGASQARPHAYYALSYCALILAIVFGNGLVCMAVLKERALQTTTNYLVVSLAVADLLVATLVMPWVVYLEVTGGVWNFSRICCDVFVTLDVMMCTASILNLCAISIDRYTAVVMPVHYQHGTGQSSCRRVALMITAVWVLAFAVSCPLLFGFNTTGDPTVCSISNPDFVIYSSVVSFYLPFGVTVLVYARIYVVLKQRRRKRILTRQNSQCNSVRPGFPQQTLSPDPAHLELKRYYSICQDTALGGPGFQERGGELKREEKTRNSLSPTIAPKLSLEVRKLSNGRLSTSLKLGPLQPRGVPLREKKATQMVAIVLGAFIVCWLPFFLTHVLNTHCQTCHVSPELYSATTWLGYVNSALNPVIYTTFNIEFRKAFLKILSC

In the case of `COc1ccccc1N1CCN(CCCCNC(=O)c2ccc3c(c2)Cc2ccccc2-3)CC1`, the Ki on D(3) dopamine receptor [1] came out at 0.52 nM. At D(3) dopamine receptor [2], this molecule had an EC50 of 49 nM. As to `COc1ccccc1N1CCN(CCCCNC(=O)c2ccc(-c3ccccc3)cc2)CC1`, affinity on D(3) dopamine receptor [1] was put at a Ki of 0.3 nM. With `O=C(NCCCCN1CCN(c2cccc(Cl)c2Cl)CC1)c1ccccc1`, at D(3) dopamine receptor [1], the affinity, expressed as Ki, was 11.9 nM. At D(3) dopamine receptor [2], this molecule gave an EC50 of 209 nM. On to `O=C(NCCCCN1CCN(c2cccc(Cl)c2Cl)CC1)c1ccc2ccccc2c1`, for which, on D(3) dopamine receptor [1], the Ki was 7.9 nM. Consider `O=C(NCCCCN1CCN(c2cccc(Cl)c2Cl)CC1)c1cccc2ccccc12`, for which the affinity at D(3) dopamine receptor [1], expressed as Ki, was 6.9 nM. The same molecule showed an EC50 at D(3) dopamine receptor [2] of 60.3 nM. `O=C(NCCCCN1CCN(c2cccc(Cl)c2Cl)CC1)[C@H]1CC[C@@H](c2ccccc2)CC1`: the affinity on D(3) dopamine receptor [1] corresponds to a Ki of 10.6 nM. The molecule further showed an EC50 at D(3) dopamine receptor [2] of 631 nM. The molecule `COc1ccccc1N1CCN(CCCCNC(=O)c2cccc3ccccc23)CC1` showed an inhibition constant Ki on D(3) dopamine receptor [1] of 32.6 nM. `COc1ccccc1N1CCN(CCCCNC(=O)[C@H]2CC[C@@H](c3ccccc3)CC2)CC1` came in with an inhibition constant Ki at D(3) dopamine receptor [1] of 20.6 nM. This molecule showed a concentration for a half-maximal effect (EC50) on D(3) dopamine receptor [2] of 1820 nM. As to `O=C(NCCCCN1CCN(c2cccc(Cl)c2Cl)CC1)c1ccc(-c2ccccc2)cc1`, on D(3) dopamine receptor [1], the affinity corresponds to a Ki of 1.98 nM. On the same count and under the same terms, the same measure for `O=C(NCCCCN1CCN(c2cccc(Cl)c2Cl)CC1)[C@H]1CC[C@H](c2ccccc2)CC1`: 22.8 nM. Consider `COc1ccccc1N1CCN(CCCCNC(=O)[C@H]2CC[C@H](c3ccccc3)CC2)CC1`, for which, at D(3) dopamine receptor [1], the Ki came to 3.4 nM.
